Each block holds one compound with its values, some of them ahead of it.
What was measured:
[1] = assay type: physicochemical
Protocol: Oxidized porous silicon microparticles were prepared using a similar method to those used for segesterone acetate melt casting described elsewhere (75% porosity, 800° C. oxidation). […] Once molten, the LNG-CHOL mixture was left to infiltrate the porous silica materials for 5 minutes before cooling to room temperature. The oxidized porous silicon material containing LNG-CHOL was then recovered and ground into microparticles using a mortar and pestle. The loaded oxidized porous silicon particles were then evaluated for their release kinetics in 1×PBS (pH 7.4) at 37° C. Approximately 2 mg of LNG-PSi were placed in a glass vial containing 3.5 mL of 1×PBS and placed in a 37° C. incubator on a moving platform to induce mild agitation of the solution. 3 mL of the PBS was removed every 24 hours and replaced with fresh solution. The extracted supernatant was then analyzed for LNG content by high performance liquid chromatography (HPLC).

[2] = In vitro dissolution / segesterone acetate release in 1x PBS; assay type: physicochemical; settings: 1x PBS pH 7.4, 37° C., mild agitation, starting SEG 0.4 mg/mL
Protocol: Modulation of Segesterone Acetate Release Profile. Three main particle parameters were investigated as to their effect on the release of loaded SEG: particle oxidation temperature, drug loading, and particle porosity. Unless otherwise mentioned, the baseline particle formulation used was 55% porosity, oxidized at 800° C. and had segesterone acetate loading of 70% weight/weight. Drug release was modeled by in vitro dissolution in 1× phosphate buffered saline (pH 7.4) under mild agitation at 37° C. For all studies, starting segesterone acetate concentration was kept constant at 0.4 mg/mL based on the percent loading of the given formulation. […] Segesterone acetate concentrations were evaluated by HPLC with absorbance measurements at 254 nm.

androgen receptor = molecular target: T1, androgen receptor (Homo sapiens, UniProt P10275); settings: cited from earlier work
T1 sequence (P10275 1-920): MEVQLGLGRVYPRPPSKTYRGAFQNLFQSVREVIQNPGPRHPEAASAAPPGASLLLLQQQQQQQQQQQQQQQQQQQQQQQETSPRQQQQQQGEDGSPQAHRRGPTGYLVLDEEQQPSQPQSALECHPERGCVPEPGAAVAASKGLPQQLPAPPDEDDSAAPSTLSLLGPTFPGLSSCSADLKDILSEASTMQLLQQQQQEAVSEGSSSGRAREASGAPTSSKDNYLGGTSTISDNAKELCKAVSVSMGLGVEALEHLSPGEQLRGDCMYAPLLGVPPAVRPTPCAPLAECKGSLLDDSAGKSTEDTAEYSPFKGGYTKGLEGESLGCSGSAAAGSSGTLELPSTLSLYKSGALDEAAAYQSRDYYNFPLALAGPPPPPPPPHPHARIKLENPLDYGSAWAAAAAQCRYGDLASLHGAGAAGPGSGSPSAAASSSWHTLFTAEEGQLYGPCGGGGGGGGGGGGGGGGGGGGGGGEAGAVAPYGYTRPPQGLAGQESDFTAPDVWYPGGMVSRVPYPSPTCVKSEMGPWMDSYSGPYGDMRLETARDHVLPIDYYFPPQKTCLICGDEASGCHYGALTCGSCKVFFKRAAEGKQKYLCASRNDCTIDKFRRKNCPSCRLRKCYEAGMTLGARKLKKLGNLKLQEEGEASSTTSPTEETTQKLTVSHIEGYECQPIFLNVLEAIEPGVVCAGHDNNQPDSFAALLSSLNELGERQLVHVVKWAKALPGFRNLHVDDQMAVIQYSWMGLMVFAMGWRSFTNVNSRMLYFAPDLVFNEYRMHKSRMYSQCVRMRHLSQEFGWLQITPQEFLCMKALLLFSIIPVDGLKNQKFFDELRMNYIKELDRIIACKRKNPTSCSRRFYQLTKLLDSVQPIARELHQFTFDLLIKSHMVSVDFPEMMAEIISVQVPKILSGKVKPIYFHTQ

estrogen receptor = molecular target: T2, estrogen receptor (Homo sapiens, UniProt P03372); settings: cited from earlier work
T2 sequence (P03372 1-595): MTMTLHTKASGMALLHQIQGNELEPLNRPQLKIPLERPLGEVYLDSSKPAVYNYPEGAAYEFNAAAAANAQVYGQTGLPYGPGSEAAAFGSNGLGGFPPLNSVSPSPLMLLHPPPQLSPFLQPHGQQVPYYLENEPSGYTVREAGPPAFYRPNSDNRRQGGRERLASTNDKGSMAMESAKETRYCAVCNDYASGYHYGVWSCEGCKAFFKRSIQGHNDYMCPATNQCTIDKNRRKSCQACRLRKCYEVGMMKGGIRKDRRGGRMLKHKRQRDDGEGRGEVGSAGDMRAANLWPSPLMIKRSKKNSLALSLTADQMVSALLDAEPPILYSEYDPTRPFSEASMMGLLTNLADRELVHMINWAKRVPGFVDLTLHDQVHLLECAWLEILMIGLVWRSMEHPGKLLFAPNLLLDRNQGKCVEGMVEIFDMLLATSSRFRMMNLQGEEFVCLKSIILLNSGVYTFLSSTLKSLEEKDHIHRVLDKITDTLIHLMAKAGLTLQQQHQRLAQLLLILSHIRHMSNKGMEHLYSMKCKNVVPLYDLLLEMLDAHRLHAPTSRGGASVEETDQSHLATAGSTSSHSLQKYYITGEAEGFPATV

[3] = Serum segesterone acetate by HPLC-MS/MS after subcutaneous injection; settings: rat, 50 mg/kg SEG

Compound: C#C[C@]1(OC(=O)CCC)CC[C@H]2[C@@H]3CCC4=CC(=O)CC[C@@H]4[C@H]3CC[C@@]21CC [Levonorgestrel Butanoate]
- Tdegradeable (STA under nitrogen flow): 230 °C
- Window [Tdegradeable − Tmelt] (difference between melting and degradation temperatures, STA under nitrogen flow): 26 °C

- chemical alteration or degradation by the melt casting process [1]: not chemically altered or degraded
- temperature at which the drug began to lose mass (oxygen atmosphere, heating rate 10° C.): approximately 233 °C
Compound: C#C[C@]1(O)CC[C@H]2[C@@H]3CCC4=CC(=O)CC[C@@H]4[C@H]3CC[C@@]21CC [Levonorgestrel]

- duration of segesterone acetate release / time to full clearance from the test chamber ([2]; listed as crystalline segesterone acetate controls): 40 days
- duration of segesterone acetate release / time to full clearance from the test chamber ([2]; listed as pure segesterone acetate): 35 to 40 days
- segesterone acetate detection in serum at terminal 6-month timepoint [3]: still detected
Compound: C=C1C[C@H]2[C@@H]3CCC4=CC(=O)CC[C@@H]4[C@H]3CC[C@]2(C)[C@@]1(OC(C)=O)C(C)=O [segesterone acetate]
- binding to the androgen receptor (androgen receptor): does not significantly bind
- binding to the estrogen receptor (estrogen receptor): does not significantly bind

— patent US20260191783A1, “DRUG DELIVERY FORMULATIONS” (The Regents of the University of California, priority 2018, published 2026)
